The values that follow are results of earlier work, collected in paper PMC8138767, “Intrinsically disordered substrates dictate SPOP subnuclear localization and ubiquitination activity” (The Journal of Biological Chemistry, 2021).

Data set [1] deals with SPOP. Particulars: in phase-separated droplets in cells; cited from earlier work. The source says: SPOP derives its name from the […]. Specifically, SPOP colocalizes with nuclear speckles but has also been reported in other subnuclear compartments ([24], [26]). The nuclear speckles that house SPOP in the absence of high concentrations of substrate are liquid-like in nature ([21]). The SPOP substrate DAXX typically localizes to promyelocytic leukemia bodies ([27]).

Data set [2] concerns the target T1, SPOP28–359 (Homo sapiens, UniProt O43791).
T1 construct: A plasmid encoding His–SUMO–SPOP human residues 28 to 359; His-SUMO (N, cleaved yes); made in house; host or cells: E. coli Rosetta BL-21(DE3)
Particulars: substrates with six (DAXX) and seven (AR) SB motifs; cited from earlier work. From the text:
We next sought to assess the role of SPOP oligomerization in the SPOP–Pdx1 interaction and saw a near 10-fold enhancement in binding affinity of Pdx1 to oligomeric SPOP28–359 compared with SPOP–MATH (Fig. 5B and Table S4) in agreement with previous similar observations ([22], [23]). Concentration-dependent SPOP self-association results in an ensemble of oligomeric species with sizes spanning from dimers to large multimers ([21]). SPOP substrates DAXX and AR are also multivalent for SPOP; they contain six and seven SB motifs, respectively, which dramatically enhances their affinities for SPOP28 ...

T1 sequence (O43791 28-359): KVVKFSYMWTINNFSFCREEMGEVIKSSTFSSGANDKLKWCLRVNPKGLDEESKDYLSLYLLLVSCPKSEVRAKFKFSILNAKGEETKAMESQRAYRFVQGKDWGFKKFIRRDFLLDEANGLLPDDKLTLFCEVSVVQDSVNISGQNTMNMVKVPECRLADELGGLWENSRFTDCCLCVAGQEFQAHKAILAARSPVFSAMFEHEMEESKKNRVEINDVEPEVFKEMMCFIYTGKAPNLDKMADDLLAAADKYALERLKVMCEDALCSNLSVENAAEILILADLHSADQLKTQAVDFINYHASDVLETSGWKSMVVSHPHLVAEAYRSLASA

As to “AR: androgen receptor, SPOP substrate with seven SB motifs”, in data set [1], the “SPOP-mediated polyubiquitination in cells” value is “robust SPOP-mediated polyubiquitination”. Also, the “affinity for SPOP28–359 relative to SPOP–MATH” value in data set [2] is listed as “dramatically enhances their affinities for SPOP28–359 relative to SPOP–MATH”.
